According to US10265298B2, “Method of increasing the bioavailability of silybin” (Macau University of Science and Technology, priority 2017, dated 2019):

Experiments:
[1] = after oral administration; cited from earlier work
[2] = tested on: CCl4-induced acute liver injury; test: CCl4-induced acute liver injury in rats; type: in vivo, rat
Protocol: Male SD rats were randomly divided into six groups: 1) Group I orally received blank vehicle for 7 days, and intraperitoneally (i.p.) injected with olive oil (2 ml/kg body weight) on day 7; 2) Group II orally received blank vehicle for 7 days, and injected with CCl4-olive oil mixture (40% CCl4, i.p., 2 ml/kg body weight) on day 7; 3) Group III was treated with silybin (100 mg/kg bodyweight, per os (p.o.) for 7 days, and injected with CCl4-olive oil mixture (40% CCl4, i.p., 2 ml/kg body weight) on day 7, 2 hour after administration of silybin; 4) Group IV was treated with silybin (100 mg/kg bodyweight, p.o.) and tangeretin (100 mg/kg bodyweight, p.o.) mixture for 7 days, and injected with CCl4-olive oil mixture (40% CCl4, i.p., 2 ml/kg body weight) on day 7, 2 hour after administration of the mixture; 5) Group V was treated with silybin (50 mg/kg bodyweight, p.o.) and tangeretin (50 mg/kg bodyweight, p.o.) mixture for 7 days, and injected with CCl4-olive oil mixture (40% CCl4, i.p., 2 ml/kg body weight) on day 7, 2 hour after administration of the mixture; 6) Group VI was treated with tangeretin (100 mg/kg bodyweight, p.o.) for 7 days, and injected with CCl4-olive oil mixture (40%, i.p., 2 ml/kg body weight) on day 7, 2 hour after administration of tangeretin. Model and control group were daily treated orally with blank solvent (35% PEG400: 15% Cremophor EL: 5% ethanol: 45% saline).
24 hours after the CCl4-induced toxic liver injury was initiated, rats were sacrificed under ether anesthesia. Blood was collected from the abdominal aorta for biochemical estimations. The liver was immediately removed and weighed. A large portion of the liver was snap-frozen in the liquid nitrogen and the remaining tissue was fixed in 10% buffer formalin, processed and embedded in paraffin for histological examination after hematoxylin and eosin (H&E) staining. Steatohepatitis was evaluated by level of alanine aminotransferase (ALT), aspartate aminotransferase (AST), triglycerides, total cholesterol and superoxide dismutase (SOD) using commercial kits (Nanjing Jiancheng Bioengineering Institute, Nanjing, China) according to manufacturer's instructions and histological assessment and scoring according to standardized criteria by a pathologist blind to the study.

MCD diet-induced NASH = test: MCD diet-induced nonalcoholic steatohepatitis (NASH) mouse model; type: in vivo
From the text: Male wild-type (WT) mice C571BI/6 were fed either methionine/choline-sufficient (MCS) chow diet (Trophic Animal Feed High-tech Co., Ltd, China) or MCD diet (Trophic Animal Feed High-tech Co., Ltd, China) for 7 weeks. Animals were randomly divided into eight groups: 1) control, fed a standard control MCS diet and given vehicle (35% polyethylene glycol (PEG) 400:15% Cremophor EL:5% ethanol:45% saline); 2) rats fed a MCD diet and given vehicle; 3) rats fed the MCD diet and orally treated with silybin (300 milligrams per kilogram (mg/kg)); 4) rats fed the MCD diet and orally treated with silybin (150 mg/kg); 5) rats fed the MCD diet and orally treated with tangeretin (150 mg/kg); 6) rats fed the MCD diet and orally treated with 75 mg/kg silybin and 75 mg/kg tangeretin (SB & TG—L); 7) rats fed the MCD diet and orally treated 150 mg/kg silybin and 150 mg/kg tangeretin (SB & TG—M); 8) rats fed the MCD diet and orally treated with 300 mg/kg silybin and […]. Body weight was intermittently monitored during the diet-induction period and every two or three days during the intervention period.
At the end of 8 weeks, mice were sacrificed under ether anesthesia. The following procedures are same as the description under “2.10 Effects of silybin on acute liver damage induced by CCl4 in rats”. The cytokine levels including tumor necrosis factor alpha (TNF-α) (eBioscience Inc, San Diego, Calif., USA), interleukin-6 (IL-6) assay kit (Raybiotech, Norcross, Ga., USA) in serum of NASH model were further measured using commercially available enzyme-linked immunosorbent assay (ELISA) kits.

in vitro = in vitro ADME, rat; conditions: male, Sprague Dawley, rat
Protocol: Sandwich-cultured rat hepatocytes (SCHs) were established according to previously described methods with minor modifications. Primary rat hepatocytes were isolated from male Sprague Dawley® (SD) rats (220-270 g) using a collagenase perfusion as described previously and plated at a density of 7.4×10^5 cells/2 ml/well onto six-well BioCoat plates. Approximately 24 hours later, hepatocytes were overlaid with 2 ml of 0.25 mg/ml BD Matrigel basement membrane matrix in Dulbecco's modified Eagle medium (DMEM) containing 1% volume by volume percentage (v/v) insulin/transferrin/selenium culture supplement, […] dexamethasone, 2 mM L-glutamine, 1% (v/v) minimum essential medium nonessential amino acids, 1% penicillin-streptomycin. Hepatocytes were cultured for 4 days to allow extensive formation of canalicular networks between cells before experimentation and the medium was changed daily.
Sandwich-cultured hepatocytes (SCHs) were pre-incubated in 2 milliliters (ml) of warm Hank's Balanced Salt Solution (HBSS) with or without Ca^2+ at 37° C. for 15 minutes; the tight junctions of the bile canaliculi open temporally after exposure to HBSS without Ca^2+. Subsequently, cells were incubated at 37° C. for 20 minutes with 1.5 ml of standard HBSS containing silybin (10 μM), or MK 571 (50 μM) as a positive control, or baicalein (25, 15.8, 5, 1.58, 0.5, 0.16 μM), or tangeretin (25, 15.8, 5, 1.58, 0.5 μM). After 20 min, cells were washed three times with ice-cold standard HBSS. The cell samples were lysed by sonication in 1 ml of water for 5 seconds with the ultrasonic cell disruption system (SONICS & […], INC., Newtown, Conn., USA). Conjugated silybin and unconjugated (free) silybin were quantified by high-performance liquid chromatography-tandem mass spectrometry (HPLC-MS/MS). Transport function was normalized to the protein content of the hepatocytes which was evaluated by bicinchoninic acid (BCA) protein assay (Pierce Chemical, Rockford, Ill.). The biliary excretion index (BEI; %) and in vitro biliary clearance (Clbiliary; ml/min/kg) were calculated by using B-CLEAR technology (Qualyst, Inc., Research Triangle Park, N.C.) based on the following equations: […]

| inhibition at 20 min (in vitro) | SMILES | share metabolized to glucuronide conjugates in human plasma [1] | share metabolized to sulfate conjugates in human plasma [1] | serum TG and TC levels ([2]; 100 mg/kg of silybin, p<0.01) | CCl4-induced macroscopic and histopathological liver changes (H&E) ([2]; 7 days oral pre-treatment, 24 hours after CCl4) | CCl4-induced increase of liver weight and liver to body weight ratio ([2]; 7 days oral pre-treatment, 24 hours after CCl4, p<0.05) | CCl4-induced increase of serum activity of ALT and AST ([2]; silybin 100 mg/kg for seven consecutive days) | MCD diet-induced TC and TG increase (MCD diet-induced NASH; mice on MCD diet) | body weight (MCD diet-induced NASH; mice on MCD diet) | lipid accumulation and inflammatory infiltration in liver (H&E) (MCD diet-induced NASH; mice on MCD diet) | liver/body weight ratio (MCD diet-induced NASH; mice on MCD diet) | MCD diet-induced elevation of ALT, AST, MDA, SOD, GSH and GSH/GSSG ratio (MCD diet-induced NASH; silybin 300 mg/kg, silybin-tangeretin treatment) | liver/body ratio (MCD diet-induced NASH; silybin by co-treatment with tangeretin, FIG. 35A) | body weight and liver weight (MCD diet-induced NASH; silybin by co-treatment with tangeretin, FIG. 35B, 35C) | MCD diet-induced cytokines elevation (IL-1β, TNF-α, IL-6) (MCD diet-induced NASH; silybin treatment in the absence or presence of tangeretin) |
| --- | --- | --- | --- | --- | --- | --- | --- | --- | --- | --- | --- | --- | --- | --- | --- |
| – | COc1cc(C2Oc3cc([C@H]4Oc5cc(O)cc(O)c5C(=O)[C@@H]4O)ccc3OC2CO)ccc1O (stereo partly drawn) [silybin] | about 55% | about 28% | attenuated increases | less prominent | negated | significantly prevented | clearly inhibited | slightly increased | decreased | moderate decrease | suppressed | significantly decreased | did not significantly affect | suppressed |
| ~90% | COc1ccc(-c2cc(=O)c3c(OC)c(OC)c(OC)c(OC)c3o2)cc1 [tangeretin] | – | – | – | – | – | – | – | – | – | – | – | – | – | – |
